Patent publication US20230404989A1, “GRK2 INHIBITION BY PAROXETINE AMELIORATES OSTEOARTHRITIS” (THE PENN STATE RESEARCH FOUNDATION, priority 2020, published 2023)

Assays:
[1] = tested on: Gas activity (cAMP content in cartilage); assay: cAMP assay in tibial articular cartilage of drug-treated DMM mice; assay type: in vivo, mouse
Protocol: Drug treatment studies: In twelve-week old male wild type C57BL/6 mice that received DMM surgeries, vehicle (PBS), paroxetine (5 mg/kg/day), fluoxetine (5 mg/kg/day), gallein (10 mg/kg/day) or indomethacin (2.5 mg/kg/day) were administered daily by ip injection. Drug treatment was initiated 8 weeks following DMM to determine the role of GRK2 signaling in the progression of OA. Short term drug treatment study: To evaluate the acute effect of drug treatments, GRK2^f/f mice received sham or DMM surgery followed by treatment with vehicle, paroxetine, gallein, fluoxetine, or indomethacin with the doses indicated above for 1 week beginning at 8 weeks post DMM. All mice were sacrificed 9 weeks post DMM, 21 weeks of age, for analysis of OA progression. Gas activity was measured by quantifying cAMP content in cartilage pooled from 3 mice. Tibial cartilage was dissected out and snap frozen in liquid Nitrogen. As positive control, tibial cartilage obtained from normal mice was treated with 0.5 mM 3-isobutyl-1-methylxanthine (IBMX) for 30 minutes, followed by 0.1 mM Forskolin for 15 minutes, then snap frozen in liquid Nitrogen. For human cartilage cAMP content, 70 mg frozen cartilage were used. Frozen cartilage was pulverized using 500 μL lysis buffer as we have previously described (H. K. Le Bleu, Anal Biochem, 518, 134-138 (2017)). cAMP content was quantified using the Cyclic AMP XP Assay kit (Cell Signaling, #4339) and following manufacturer's protocol, with 0.5 mM IBMX added to the lysis buffer to prevent phosphodiesterase mediated cAMP degradation during the extraction process. cAMP levels in different groups were normalized to that of sham mice or the vehicle treated human cartilage.

[2] = tested on: ADAMTS5, MMP13, Aggrecan Neo, aggrecan in tibial articular cartilage; assay: IF staining of tibial articular cartilage of drug-treated DMM mice; assay type: in vivo, mouse; settings: for aggrecan expression (IF staining, whole tibial articular surface): daily ip week 8 to 12, versus vehicle; for ADAMTS5 expression (IF staining, uncalcified cartilage) / Aggrecan Neo expression (IF staining, uncalcified cartilage) / MMP13 expression (IF staining, uncalcified cartilage): daily treatment week 8 to 12
Protocol: Drug treatment studies: In twelve-week old male wild type C57BL/6 mice that received DMM surgeries, vehicle (PBS), paroxetine (5 mg/kg/day), fluoxetine (5 mg/kg/day), gallein (10 mg/kg/day) or indomethacin (2.5 mg/kg/day) were administered daily by ip injection. Drug treatment was initiated 8 weeks following DMM to determine the role of GRK2 signaling in the progression of OA. Paraffin sections were deparaffinized in three changes of xylene for five minutes each, rehydrated in ethanol (two changes of 100% ethanol, followed by two changes of 95% ethanol, followed by one change of 70% ethanol) and rinsed twice in deionized water. Antigen retrieval was performed for 30 minutes at 37° C. using 0.4% pepsin (Sigma P-7000) in 0.1M hydrochloric acid (HCl) and was followed by permeabilization for 30 minutes at room temperature using Triton X in tris buffered saline (TBS). Sections were then blocked for 1 hour at room temperature in 10% normal goat serum in 1×TBS. Tissue sections were incubated overnight at 4° C. with the rabbit anti-mouse primary antibody specific for the target protein (detailed in Table 1). Following three 5-minute washes in 1×TBS, slides were incubated for 1 hour at room temperature with biotinylated goat anti-rabbit secondary antibody (Life Technologies, Waltham, MA, USA), washed again with 3 changes of 1×TBS and incubated for 1 hour at room temperature with Alexa fluor 647 Streptavidin. Finally, slides were washed with three changes of 1×TBS for 5 minutes each, followed by one wash with 1×TBS with tween 20 (TBST), and a final 5-minute wash in 1×TBS. Mounting and nuclear staining was performed using ProLong™ Gold antifade reagent with DAPI (Invitrogen, Waltham, MA, USA).

human OA cartilage = assay: Ex vivo cultured human OA osteochondral plugs: cAMP assay; assay type: cell-based; settings: paroxetine 5 μM or gallein 10 μM, 48 hrs, versus vehicle
Text: An Institutional Review Board-approved protocol was executed to collect discarded de-identified cartilage from patients. For the experiment described in FIG. 3A, we obtained acutely injured human cartilage (from patients undergoing arthroscopic surgery 4 weeks following meniscal injury, N=6) and OA cartilage (from patients undergoing arthroplasty, N=6). Normal controls were obtained from amputees' knees (N=6). Cartilage was fixed in formalin then processed and embedded in paraffin, 5-μm sections were used for immunofluorescence (IF) staining. For the experiment described in FIG. 7, OA osteochondral tissue was collected from patients undergoing total knee arthroplasty. Osteochondral plugs (8-mm diameter) were obtained and bone was flushed with saline solution to remove all bone marrow and blood cells. […] Gas activity was measured by quantifying cAMP content in cartilage pooled from 3 mice. […] Frozen cartilage was pulverized using 500 μL lysis buffer as we have previously described (H. K. Le Bleu, Anal Biochem, 518, 134-138 (2017)). cAMP content was quantified using the Cyclic AMP XP Assay kit (Cell Signaling, #4339) and following manufacturer's protocol, with 0.5 mM IBMX added to the lysis buffer to prevent phosphodiesterase mediated cAMP degradation during the extraction process. cAMP levels in different groups were normalized to that of sham mice or the vehicle treated human cartilage.

[3] = 7 days of drug treatment from 8 weeks post-DMM

Row | SMILES | cAMP levels in the articular cartilage [1, 3] | cAMP levels in the articular cartilage ([1]; daily ip week 8 to 12) | aggrecan expression (IF staining, whole tibial articular surface) [2] | ADAMTS5 expression (IF staining, uncalcified cartilage) [2] | Aggrecan Neo expression (IF staining, uncalcified cartilage) [2] | MMP13 expression (IF staining, uncalcified cartilage) [2] | cAMP production (human OA cartilage)
1 | O=C1OC2(c3ccccc31)c1ccc(O)c(O)c1Oc1c2ccc(O)c1O [gallein] | restored | restored | enhanced | significantly decreased | significantly decreased | significantly decreased | significant increase
2 | Fc1ccc([C@@H]2CCNC[C@H]2COc2ccc3c(c2)OCO3)cc1 [paroxetine] | restored | restored | enhanced | significantly decreased | significantly decreased | significantly decreased | significant increase
